For one assay, the system named is DIO mice. As to the kind of experiment: glucokinase activation in vivo: oral glucose tolerance test in DIO mice. The following applies: oral (po) dosing; different timepoints during the oral glucose tolerance test; statistically significant. The source says:
The glucokinase activation in vivo may be determined as follows:
Male C57BL mice (Jackson Lab, Bar Harbor, Me.) are housed 2 per cage in a reversed light cycle room (light on from 8:00 p.m. to 8:00 a.m.) and given access to food and water ad libitum. To induce DIO, the mice are given a high fat diet (D12492 with 60% caloric intake from fat, Research Diets, New Brunswick, N.J.) from 4 weeks of age and maintained on the diet before being used. The DIO mice are used at 25 weeks of age. On the day of the study, animals are fasted at 7:30 a.m. Body weight measurement and basal blood sample collection are conducted at 10:00 a.m. Plasma glucose values are then determined. Animals are assigned into five groups (n=7/group) with the means of plasma glucose matched among the groups. At 10:30 a.m. animals are dosed with vehicle (water) or compound in vehicle with a dose volume of 5 ml/kg. The test compound is given at 3, 10, 30, or 100 mg/kg. One hour after vehicle or compound dosing, a blood sample (at 0 min) is taken followed by an oral glucose tolerance test (OGTT) at 1 g/kg (20% glucose in water) and a dose volume of 5 ml/kg. […] Plasma glucose concentrations are determined using a glucose meter (Ascensia Elite, Bayer Corp., Mishawaka, Ind.). […] Plasma insulin levels are determined by Luminex assay using Mouse Endocrine Lincoplex kit (Linco Research, Inc., St. Charles, Mo.). […]

Another assay deals with T1, recombinant GST-GK (Homo sapiens, UniProt P35557).
T1 sequence (P35557 1-465): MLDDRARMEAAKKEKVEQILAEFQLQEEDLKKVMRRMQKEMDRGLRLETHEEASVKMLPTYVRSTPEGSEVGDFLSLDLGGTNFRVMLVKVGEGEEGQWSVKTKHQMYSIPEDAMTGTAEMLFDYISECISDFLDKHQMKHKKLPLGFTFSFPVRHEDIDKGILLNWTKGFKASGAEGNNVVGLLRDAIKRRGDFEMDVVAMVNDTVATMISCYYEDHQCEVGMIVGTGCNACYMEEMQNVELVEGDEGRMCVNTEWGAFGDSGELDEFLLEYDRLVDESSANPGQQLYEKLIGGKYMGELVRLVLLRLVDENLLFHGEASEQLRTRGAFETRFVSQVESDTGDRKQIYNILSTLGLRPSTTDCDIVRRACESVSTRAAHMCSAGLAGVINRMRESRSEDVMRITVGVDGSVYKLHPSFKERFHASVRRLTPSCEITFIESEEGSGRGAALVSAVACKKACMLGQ
As to the kind of experiment: activation of recombinant GST-GK in vitro (primary enzyme assay). The following applies: concentration of compound that produces a 50% increase in the activity of GK. It counts as biochemical. The source says:
For example, the glucokinase activation in vitro may be determined by measuring the activation of recombinant GST-GK by a compound of the present invention in the absence or the presence of GKRP, a 68,000 Da protein inhibitor of GK. In these assays, formation of glucose-6-phosphate is coupled directly to the formation of thio-NADH. GST-GK catalyzes the reaction of glucose and Mg-ATP to produce glucose-6-phosphate and ADP. Glucose-6-phosphate dehydrogenase (G6PDH) reduces thionicotinamide (thio-NAD) to thio-NADH. The assay measures the formation of thio-NADH at […].
The basic GK assay components are as follows: 25 mM HEPES (pH 7.1), 25 mM KCl, 2.5 mM MgCl2, 1 mM ATP (Sigma A-5394), 1 mM DTT, 1 mM thio-NAD (Sigma T-7375), 80 units/mL G6PDH (Sigma G-5885), 10 mM glucose and 110 nM GST-GK. For assessing reversal of GK inhibition by GKRP, 20 μM Fructose-6-phosphate (F-6-P) and 370 nM recombinant GKRP are added to these assay components. Fructose-1-phosphate (F-1-P) at 1 μM is used as a control in the GK/GKRP assay. F-1-P reverses inhibition of GST-GK by GKRP.
The assay is done in standard, 96-well, round-bottom plates (Corning) and the total assay volume is 25 μL. Test compounds are serially diluted into 100% DMSO and 0.5 μL of diluted compound in 100% DMSO is added to the assay plate. Assay reagents (24.5 μL) are added using a Zymark robotic platform. Buffer, containing HEPES, MgCl2, KCl, thio-NAD, G6PDH, glucose and GST-GK, are added (5 μL) using the Zymark 8-channel hand pipet. For the GK/GKRP assay, GKRP and F-6-P are also included. The reaction is then initiated by adding 19.5 μL of buffer containing HEPES, MgCl2, KCl, DTT and ATP using the Zymark Reagent Addition Station/Reagent Addition Module. The plates are read kinetically over 10 min at 25° C. using a SpectraMax Plus microplate spectrophotometer (Molecular Devices, Sunnyvale, Calif.) to monitor the increase in optical density at 405 nm. The GK activity in wells containing test compounds is compared with activity in DMSO control wells. The concentration of compound that produces a 50% increase in the activity of GK is calculated and expressed as EC50.

[1] abbreviates: read-out: EC50 in primary enzyme assay.

Like-named read-outs stand apart in the source and are kept apart here.

Consider `COc1ccc2nc(NC(=O)[C@H](CC3CCCC3)c3ccc(S(=O)(=O)N(CCC(=O)O)Cc4ccccc4)cc3)sc2n1` [Example 1, 3-(Benzyl-{4-[(R)-2-cyclopentyl-1-(5-methoxy-thiazolo[5,4-b]pyridin-2-ylcarbamoyl)-ethyl]-benzenesulfonyl}-amino)-propionic acid], for which the reductions in glucose in the assay with DIO mice was 38-53%. Further, the EC50 is 0.27 µM on recombinant GST-GK (setting [1]) and around 0.271 µM at recombinant GST-GK (read-out: EC50 in the in vitro assay measuring the activation of recombinant GST-GK). Turning to `COCCN(CCC(=O)O)S(=O)(=O)c1ccc(C(CC2CCCC2)C(=O)Nc2nncs2)cc1` (stereo not drawn) [Example 2, 3-[{4-[2-Cyclopentyl-1-([1,3,4]thiadiazol-2-ylcarbamoyl)-ethyl]-benzene-sulfonyl}-(2-methoxy-ethyl)-amino]-propionic acid], the EC50 at recombinant GST-GK (setting [1]) was 50 µM. Consider `COc1ccc2nc(NC(=O)[C@H](CC3CCCC3)c3ccc(S(=O)(=O)N(CCC(=O)O)Cc4cc5ccccc5o4)cc3)sc2n1` [Example 3, 3-(Benzofuran-2-ylmethyl-{4-[(R)-2-cyclopentyl-1-(5-methoxy-thiazolo[5,4-b]pyridin-2-ylcarbamoyl)-ethyl]-benzenesulfonyl}-amino)-propionic acid], for which the EC50 on recombinant GST-GK (setting [1]) worked out at 0.22 µM. For `COc1ccc2nc(NC(=O)C(CC3CCCC3)c3ccc(S(=O)(=O)N(CC(=O)O)Cc4ccco4)cc3)sc2n1` (stereo not drawn) [Example 4-9, ({4-[2-Cyclopentyl-1-(5-methoxy-thiazolo[5,4-b]pyridin-2-ylcarbamoyl)-ethyl]-benzenesulfonyl}-furan-2-ylmethyl-amino)-acetic acid], the EC50 on recombinant GST-GK (setting [1]) worked out at 2.4 µM.

On to `COc1ccc(CN(CCC(=O)O)S(=O)(=O)c2ccc([C@@H](CC3CCCC3)C(=O)Nc3nc4ccc(OC)nc4s3)cc2)cc1` [Example 4-21, 3-[{4-[(R)-2-Cyclopentyl-1-(5-methoxy-thiazolo[5,4-b]pyridin-2-ylcarbamoyl)-ethyl]-benzenesulfonyl}-(4-methoxy-benzyl)-amino]-propionic acid], for which the EC50 on recombinant GST-GK (setting [1]) amounted to 0.92 µM. Turning to `COCCN(CCC(=O)O)S(=O)(=O)c1ccc(C(CC2CCCC2)C(=O)Nc2nc3cccnc3s2)cc1` (stereo not drawn) [Example 4-41, 3-[{4-[2-Cyclopentyl-1-(thiazolo[5,4-b]pyridin-2-ylcarbamoyl)-ethyl]-benzenesulfonyl}-(2-methoxy-ethyl)-amino]-propionic acid], the EC50 on recombinant GST-GK (setting [1]) is 1.2 µM. With `COCCN(CCC(=O)O)S(=O)(=O)c1ccc([C@@H](CC2CCCC2)C(=O)Nc2nc3ccc(SC)nc3s2)cc1` [Example 4-42, 3-[{4-[(R)-2-Cyclopentyl-1-(5-methylsulfanyl-thiazolo[5,4-b]pyridin-2-ylcarbamoyl)-ethyl]-benzenesulfonyl}-(2-methoxy-ethyl)-amino]-propionic acid], the EC50 on recombinant GST-GK (setting [1]) was 0.23 µM. As to `COCCOc1ccc2nc(NC(=O)[C@H](CC3CCCC3)c3ccc(S(=O)(=O)N(CCOC)CCC(=O)O)cc3)sc2n1` [Example 4-46, 3-[(4-{(R)-2-Cyclopentyl-1-[5-(2-methoxy-ethoxy)-thiazolo[5,4-b]pyridin-2-ylcarbamoyl]-ethyl}-benzenesulfonyl)-(2-methoxy-ethyl)-amino]-propionic acid], on recombinant GST-GK (setting [1]), the EC50 was determined as 0.22 µM. On the same count and under the same terms, then `COCCN(CCC(=O)O)S(=O)(=O)c1ccc([C@H](CC2CCCC2)C(=O)Nc2nc3ccc(Cl)nc3s2)cc1` [Example 4-51, 3-[{4-[(S)-1-(5-Chloro-thiazolo[5,4-b]pyridin-2-ylcarbamoyl)-2-cyclopentyl-ethyl]-benzenesulfonyl}-(2-methoxy-ethyl)-amino]-propionic acid], with 44 µM; and `COCCNC(=O)c1ccc2nc(NC(=O)[C@@H](CC3CCCC3)c3ccc(S(=O)(=O)N(CCOC)CCC(=O)O)cc3)sc2n1` [Example 4-60, 3-[(4-{(S)-2-Cyclopentyl-1-[5-(2-methoxy-ethylcarbamoyl)-thiazolo[5,4-b]pyridin-2-ylcarbamoyl]-ethyl}-benzenesulfonyl)-(2-methoxy-ethyl)-amino]-propionic acid], with 6 µM.

These data come from patent publication US8252931B2, “Thiazolo[5,4-B]pyridine glucokinase activators” (Novartis AG, priority 2005, dated 2012).
